In patent US9216973B2, “Insecticidal compounds” (Syngenta Participations AG, priority 2008, dated 2015):

How the values were obtained:
Type in all cases: in vivo
[1] = test system: Heliothis virescens (Tobacco budworm); experiment: Heliothis virescens egg test on artificial diet; conditions: 96 h, 200 ppm (concentration in well 18 ppm), eggs 0-24 h old on artificial diet, egg mortality, larval mortality, growth regulation after 4 days, read-out: control of Heliothis virescens
Method: (§1) This Example illustrates the insecticidal and acaricidal properties of compounds of formula (I). The tests were performed as follows:
(§2) Cotton leaf discs were placed on agar in a 24-well microtiter plate and sprayed with test solutions at an application rate of 200 ppm. After drying, the leaf discs were infested with 5 L1 larvae. The samples were checked for mortality, feeding behavior, and growth regulation 3 days after treatment (DAT). The following compound gave at least 80% control of Spodoptera littoralis: A1, A2, A5, A6, A7, A8, A10, A11, A12, A13, A14, A15, A16, A17, A18, A19, A21, A22, A23, A24, A25, A30, A31, A32, A33, A34, A35, A39, A40, A41 A42, A43, A44, A45, A46, A47, A48, A49, A50, A51, A53, A54, A55, A59, A60, A61, A62. Heliothis virescens (Tobacco budworm): Eggs (0-24 h old) were placed in 24-well microtiter plate on artificial diet and treated with test solutions at an application rate of 200 ppm (concentration in well 18 ppm) by pipetting. After an incubation period of 4 days, samples were checked for egg mortality, larval mortality, and growth regulation. The following compound gave at least 80% control of Heliothis virescens: A1, A2, A3, A4, A5, A6, A7, A8, A10, A11, A12, A13, A14, A15, A16, A18, A19, A21, A22, A24, A25, A30, A31, A32, A33, A34, A35, A37, A38, A39, A40, A42, A43, A44, A45, A46, A47, A48, A49, A50, A51, A55, AA57, A58, A59, A60, A61, A62. Plutella xylostella (Diamond back moth): 24-well microtiter plate (MTP) with artificial diet was treated with test solutions at an application rate of 200 ppm (concentration in well 18 ppm) by pipetting. After drying, the MTP's were infested with L2 larvae (7-12 per well). After an incubation period of 6 days, samples were checked for larval mortality and growth regulation. The following compound gave at least 80% control of Plutella xylostella: A1, A2, A5, A6, A7, A8, A9, A10, A11, A12, A13, A14, A15, A16, A17, A18, A19, A20, A21, A22, A24, A25, A30, A31, A32, A33, A34, A35, A37, A38, A39, A40, A42, A43, A44, A45, A46, A47, A48, A49, A50, A51, A52, A53, A54, A55, A57, A58, A59, A60, A61, A62, B3. Diabrotica balteata (Corn root worm): A 24-well microtiter plate (MTP) with artificial diet was treated with test solutions at an application rate of 200 ppm (concentration in well 18 ppm) by pipetting. After drying, the MTP's were infested with L2 larvae (6-10 per well). After an incubation period of 5 days, samples were checked for larval mortality and growth regulation. The following compound gave at least 80% control of Diabrotica balteata: A1, A2, A5, A6, A7, A10, A11, A12, A13, A14, A15, A16, A17, A18, A19, A21, A22, A24, A25, A30, A31, A32, A33, A34, A35, A38, A39, A40, A42, A43, A44, A45, A46, A47, A48, A49, A50, A59, A60, A61, A62. Thrips tabaci (Onion thrips): Sunflower leaf discs were placed on agar in a 24-well microtiter plate and sprayed with test solutions at an application rate of 200 ppm. After drying, the leaf discs were infested with an […] population of mixed ages. After an incubation period of 7 days, samples were checked for mortality. The following compounds gave at least 80% control of Thrips tabaci: A1, A2, A5, A6, A7, A8, A10, A12, A13, A14, A15, A16, A17, A18, A19, A21, A24, A25, A30, A31, A32, A33, A34, A35, A39, A42, A43, A44, A45, A46, A47, A48, A49, A50, A51, A53, A54, A57, A58, A59, A60, A61, A62. Tetranychus urticae (Two-spotted spider mite): Bean leaf discs on agar in 24-well microtiter plates were sprayed with test solutions at an application rate of 200 ppm. After drying, the leaf discs are infested with mite populations of mixed ages. 8 days later, discs are checked for egg mortality, larval mortality, and adult mortality. The following compound gave at least 80% control of Tetranychus urticae: A1, A2, A4, A5, A6, A7, A8, A10, A11, A12, A13, A14, A15, A16, A17, A18, A19, A20, A21, A22, A30, A31, A32, A33, A34, A35, A39, A40, A41, A42, A43, A44, A45, A46, A47, A48, A49, A50, A51, A53, A54, A55, A57, A59, A60, A61, A62.

[2] = test system: Tetranychus urticae (Two-spotted spider mite); experiment: Tetranychus urticae bean leaf disc spray test; conditions: foliar, 192 h, 200 ppm spray on bean leaf discs, mite populations of mixed ages, egg, larval and adult mortality 8 days later, read-out: control of Tetranychus urticae
Method: as §1, §2

[3] = test system: Plutella xylostella (Diamond back moth); experiment: Plutella xylostella larvae test on artificial diet; conditions: 144 h, 200 ppm (concentration in well 18 ppm), artificial diet, L2 larvae, larval mortality and growth regulation after 6 days
Method: as §1, §2

[4] = test system: Thrips tabaci (Onion thrips); experiment: Thrips tabaci sunflower leaf disc spray test; conditions: foliar, 168 h, 200 ppm spray on sunflower leaf discs, population of mixed ages, mortality after 7 days
Method: as §1, §2

[5] = test system: Diabrotica balteata (Corn root worm); experiment: Diabrotica balteata larvae test on artificial diet; conditions: 120 h, 200 ppm (concentration in well 18 ppm), artificial diet, L2 larvae, larval mortality and growth regulation after 5 days
Method: as §1, §2

Measured: pest or weed control at 200 ppm

CC1(NC(=O)c2ccc(C3=NOC(c4cc(Cl)cc(Cl)c4)(C(F)(F)F)C3)c3ccccc23)CSC1 (stereo not shown) [A1]
≥ 80%: all assays above

O=C(NC1CSC1)c1ccc(C2=NOC(c3cc(Cl)cc(Cl)c3)(C(F)(F)F)C2)c2ccccc12 (stereo not shown) [A2]
≥ 80%: all assays above

Cc1cc(C2=NOC(c3cc(Cl)cc(Cl)c3)(C(F)(F)F)C2Br)ccc1C(=O)NC1(C)CSC1 (stereo not shown) [A5]
≥ 80%: all assays above

Cc1cc(C2=NOC(c3cc(Cl)cc(Cl)c3)(C(F)(F)F)C2Br)ccc1C(=O)NC1CSC1 (stereo not shown) [A6]
≥ 80%: all assays above

Cc1cc(C2=NOC(c3cc(Cl)cc(Cl)c3)(C(F)(F)F)C2Br)ccc1C(=O)NC1C[S+]([O-])C1 (stereo not shown) [A7]
not listed: [5]
≥ 80%: all other assays above

Cc1cc(N2CC(c3cc(Cl)cc(Cl)c3)(C(F)(F)F)OC2=O)ccc1C(=O)NC1C[S+]([O-])C1 (stereo not shown) [A10]
≥ 80%: all assays above

Cc1cc(N2CC(c3cc(Cl)cc(Cl)c3)(C(F)(F)F)OC2=O)ccc1C(=O)NC1CSC1 (stereo not shown) [A11]
not listed: [4]
≥ 80%: all other assays above

Cc1cc(C2=NN(C)C(c3cc(Cl)cc(Cl)c3)(C(F)(F)F)C2)ccc1C(=O)NC1(C)CSC1 (stereo not shown) [A12]
≥ 80%: all assays above

Cc1cc(C2=NN(C)C(c3cc(Cl)cc(Cl)c3)(C(F)(F)F)C2)ccc1C(=O)NC1C[S+]([O-])C1 (stereo not shown) [A13]
≥ 80%: all assays above

Cc1cc(C2=NN(C)C(c3cc(Cl)cc(Cl)c3)(C(F)(F)F)C2)ccc1C(=O)NC1CSC1 (stereo not shown) [A14]
≥ 80%: all assays above

O=C(NC1CS(=O)(=O)C1)c1ccc(C2=NOC(c3cc(Cl)cc(Cl)c3)(C(F)(F)F)C2)c2ccccc12 (stereo not shown) [A15]
≥ 80%: all assays above

O=C(NC1C[S+]([O-])C1)c1ccc(C2=NOC(c3cc(Cl)cc(Cl)c3)(C(F)(F)F)C2)c2ccccc12 (stereo not shown) [A16]
≥ 80%: all assays above

Cc1cc(C2=NOC(c3cc(Cl)cc(Cl)c3)(C(F)(F)F)O2)ccc1C(=O)NC1CSC1 (stereo not shown) [A17]
not listed: [1]
≥ 80%: all other assays above

O=C(NC1CS(=O)(=O)C1)c1ccc(C2=NOC(c3cc(Cl)cc(Cl)c3)(C(F)(F)F)C2)c2nsnc12 (stereo not shown) [A22]
not listed: [4]
≥ 80%: all other assays above

Cc1cc(C2=NOC(c3cc(Cl)cc(Cl)c3)(C(F)(F)F)C2O)ccc1C(=O)NC1CS(=O)(=O)C1 (stereo not shown) [A51]
not listed: [5]
≥ 80%: all other assays above

Cc1cc(C2=NOC(c3cc(Cl)cc(Cl)c3)(C(F)(F)F)C2O)ccc1C(=O)NC1C[S+]([O-])C1 (stereo not shown) [A53]
≥ 80%: [2] | [3] | [4]

Cc1cc(C2=NOC(c3cc(Cl)cc(Cl)c3)(C(F)(F)F)C2O)ccc1C(=O)NC1CSC1 (stereo not shown) [A54]
≥ 80%: [2] | [3] | [4]

Cc1cc(C2=NOC(c3cc(Cl)cc(Cl)c3)(C(F)(F)F)/C2=N/O)ccc1C(=O)NC1CS(=O)(=O)C1 (stereo not shown) [A55]
≥ 80%: [1] | [2] | [3]
